The term IC50 denotes the concentration that inhibits the measured activity by half. As a reminder, the half-life is the time in which the quantity being followed falls by half. Usually Cmax stands for the peak of the concentration-time curve. One may read the EC50 as the concentration at which the effect is half-maximal. A high value points to a need for much substance.

This is an account of results in patent publication US11401279B2, “Pyrido[3,2-d]pyrimidine compounds as immunomodulators” (Incyte Corporation, priority 2019, dated 2022).

The target of one data set is PD-1/PD-L1 (Homo sapiens (Human), UniProt Q9NZQ7). Description: Homogeneous Time-Resolved Fluorescence (HTRF) PD-1/PD-L1 binding assay. The following applies: recombinant human PD-1 and PD-L1. Here is the method:
The assays were conducted in a standard black 384-well polystyrene plate with a final volume of 20 μL. Inhibitors were first serially diluted in DMSO and then added to the plate wells before the addition of other reaction components. The final concentration of DMSO in the assay was 1%. The assays were carried out at 25° C. in the PBS buffer (pH 7.4) with 0.05% Tween-20 and 0.1% BSA. Recombinant human PD-L1 protein (19-238) with a His-tag at the C-terminus was purchased from AcroBiosystems (PD1-H5229). Recombinant human PD-1 protein (25-167) with Fc tag at the C-terminus was also purchased from AcroBiosystems (PD1-H5257). PD-L1 and PD-1 proteins were diluted in the assay buffer and 10 μL was added to the plate well. Plates were centrifuged and proteins were preincubated with inhibitors for 40 minutes. The incubation was followed by the addition of 10 μL of HTRF detection buffer supplemented with Europium cryptate-labeled anti-human IgG (PerkinElmer-AD0212) specific for Fc and anti-His antibody conjugated to SureLight®-Allophycocyanin (APC, PerkinElmer-AD0059H). After centrifugation, the plate was incubated at 25° C. for 60 min. before reading on a PHERAstar FS plate reader (665 nm/620 nm ratio). Final concentrations in the assay were—3 nM PD1, 10 nM PD-L1, 1 nM europium anti-human IgG and 20 nM anti-His-Allophycocyanin. IC50 determination was performed by fitting the curve of percent control activity versus the log of the inhibitor concentration using the GraphPad Prism 5.0 software.
Background: TR-FRET usually uses a lanthanide donor and a delayed reading to cut background.

The nature of data set [1]: In vivo pharmacokinetics in rats. On the set-up: species or system Sprague Dawley rats. The following applies: rat, cassette dosing. The procedure:
For in vivo pharmacokinetic experiments, test compounds were administered to male Sprague Dawley rats or male and female Cynomolgus monkeys intravenously or via oral gavage. For intravenous (IV) dosing, test compounds were dosed at 0.5 to 1 mg/kg using a formulation of 10% dimethylacetamide (DMAC) in acidified saline via IV bolus for rat and 5 min or 10 min IV infusion for monkey. For oral (PO) dosing, test compounds were dosed at 1.0 to 3.0 mg/kg using 5% DMAC in 0.5% methylcellulose in citrate buffer (pH 3.5). Blood samples were collected at predose and various time points up to 24 hours postdose. All blood samples were collected using EDTA as the anticoagulant and centrifuged to obtain plasma samples. The plasma concentrations of test compounds were determined by LC-MS methods. The measured plasma concentrations were used to calculate PK parameters by standard noncompartmental methods using Phoenix® WinNonlin software program (version 7.0, Pharsight Corporation).
In rats and monkeys, cassette dosing of test compounds were conducted to obtain preliminary PK parameters.

The test system of data set [2] is U2OS/PD-L1 cells and Jurkat-PD-1-SHP cells. Description: Src homology region 2 domain-containing phosphatase (SHP) assay. It is filed as cell-based. The note with it: Homo sapiens, U2OS; PathHunter chemiluminescence, 2 hours. The procedure:
U2OS/PD-L1 cells (DiscoveRx Corporation) were maintained in McCoy's 5A medium with addition of 10% FBS, 0.25 μg/mL Puromycin. After removing the culture media, the cell medium was replaced with assay medium (RPMI1640 medium with 1% FBS). The U2OS/PD-L1 cells were then added in 384-well black clear bottom assay plate (CELLCOAT® Tissue Culture Plates, Greiner Bio-One) at 5000 cells per well in 20 μL assay medium. Test compounds were prepared by serial dilution in DMSO and 125 nL compound were first transferred to the 384 REMP plate well (Thermofisher) by ECHO liquid handler (Labcyte) followed with addition of 27.5 μL assay medium. 5 µL/well compounds in the assay medium were transferred to the cell plate with 0.05% DMSO in the final assay at 0.25 μM. Jurkat-PD-1-SHP cells (DiscoveRx Corporation) were cultured in RPMI1640 medium supplemented with 10% FBS, 250 μg/mL Hygromycin B, 500 μg/mL G418. After the replacement of culture media with assay medium, 5,000 Jurkat-PD-1-SHP cells in 20 μL were dispensed into each well. The assay plate was incubated at 37° C., 5% CO2 for 2 hours before 2.5 μL PathHunter reagent 1 (DiscoveRx Corporation) were added to each well. The assay plate was shaken for 1 min at 350 rpm in the dark followed with addition of 10 μL PathHunter reagent 2 (DiscoveRx Corporation). Chemiluminescent signal was recorded with TopCount reader (Perkin Elmer) after incubation at room temperature for 1 hour. Wells with DMSO were served as the positive controls and wells containing no cells were used as negative controls. IC50 determination was performed by fitting the curve of percentage of control activity versus the log of the compound concentration using the GraphPad Prism 6.0 software.

Another data set addresses PD-L1 (Homo sapiens (Human), UniProt Q9NZQ7). Description: PD-L1 whole blood internalization assay. The following applies: PD-L1 internalization in human whole blood, CD14+ cells, interferon γ, 24 hour. It is filed as cell-based. The procedure: To determine PD-L1 internalization in human whole blood, normal human blood (Biological Specialty Corp, Colmar. Pa.) was incubated in the presence or absence of a concentration range of test compounds and 1 ng/mL human interferon γ (R&D Systems Inc. Minn. […] Blood was then stained with PD-L1 (MIH1, eBioscience; or BD Biosciences San Jose, Calif.), CD14 (Life Technologies, Carlsbad, Calif.) for 30 minutes in the dark at room temperature. Whole Blood/red cells were lysed/fixed (lysis buffer BD Biosciences) for 5 minutes at 37° C. in the dark and then centrifuged at 1600 RPM for 5 minutes. Cells were resuspended in Stain Buffer (BD Bioscience, San Jose, Calif.) and transferred into 96 well round bottom plates (Corning). Cells were gated on CD14+(BD Biosciences) and PD-L1 expression determined by mean fluorescence intensity (MFI) (BD LSRFortessa™ X-20). IC50 determination was performed by fitting the curve of compound percent inhibition versus the log of the compound concentration using the GraphPad Prism 7.0 software.

Data set [3] deals with PD-L1 aAPC/CHO-K1 cells and Jurkat-PD-1-NFAT effector cells. Description: Nuclear factor of activated T-cells (NFAT) assay. The data set is classed as cell-based. The note with it: Cricetulus griseus, CHO-K1; luminescence, 24 hours. Here is the method:
PD-L1 aAPC/CHO-Klcells (Promega) were maintained in F-12 medium with addition of 10% FBS, 200 μg/mL Hygromycin B, 250 μg/mL Geneticin (G418). Jurkat-PD-1-NFAT effector cells (Promega) were cultured in RPMI 1640 medium supplemented with 10% FBS, 100 μg/mL Hygromycin B, 500 μg/mL G418. The culture media of PD-L1 aAPC/CHO-K1 cells were first replaced with assay medium (RPMI1640 medium with 1% FBS). The PD-L1 aAPC/CHO-Klcells were then added in a white 384-well white clear bottom assay plate (CELLCOAT® Tissue Culture Plates, Greiner Bio-One) at 8000 per well in 10 μL assay medium. Test compounds were prepared by serial dilution in DMSO and 0.8 μL test compounds in DMSO were first transferred to the 384 REMP plate well (Thermofisher) by PlateMate Plus (Thermofisher) followed with addition of 50 μL plating medium. 5 μL compounds in the assay medium were transferred to the cells with 0.4% DMSO in the final assay at 2 μM. After removing the culture media, 10,000 Jurkat-PD-1-NFAT effector cells in 5 μL assay medium was dispensed into each well. The assay plate was incubated at 37° C., 5% CO2 for 24 hours. After the assay plate was equilibrated to room temp for 15 minutes, 20 μL/well of Bio-Glo™ reagent (Promega) were added. After 8 minutes incubation at room temperature, luminescence was read at with Pherastar microplate reader (BMG Labtech). The fold of induction (FOI) was calculated based on the ratio of luminescence normalized to the DMSO wells within each assay plate. The maximum percentage of induction was reported based on the ratio between the highest FOI of each compound and the maximum FOI of control compound within each assay plate. Wells with DMSO were served as the negative controls and wells containing control compound with the highest FOI were used as positive controls. EC50 determination was performed by fitting the curve of percent control activity versus the log of the compound concentration using the GraphPad Prism 6.0 software.

Chain of PD-1/PD-L1 (Q9NZQ7 19-238): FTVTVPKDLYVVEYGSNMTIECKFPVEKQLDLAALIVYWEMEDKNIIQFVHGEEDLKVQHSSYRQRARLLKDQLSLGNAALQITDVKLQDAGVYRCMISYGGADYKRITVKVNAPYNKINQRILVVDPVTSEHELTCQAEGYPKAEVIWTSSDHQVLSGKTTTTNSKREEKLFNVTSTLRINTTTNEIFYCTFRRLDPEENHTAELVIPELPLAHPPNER
Chain of PD-L1 (Q9NZQ7 19-290): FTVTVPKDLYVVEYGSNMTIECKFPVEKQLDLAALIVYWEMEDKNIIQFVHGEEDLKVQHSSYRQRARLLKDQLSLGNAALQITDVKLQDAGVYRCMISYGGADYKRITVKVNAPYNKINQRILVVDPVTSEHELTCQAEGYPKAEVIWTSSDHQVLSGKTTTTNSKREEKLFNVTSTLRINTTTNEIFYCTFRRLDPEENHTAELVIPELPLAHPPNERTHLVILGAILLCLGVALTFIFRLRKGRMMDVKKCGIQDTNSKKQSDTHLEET

Turning to `Cc1c(-c2nc3cc(CN4CC[C@@H](O)C4)cc(C#N)c3o2)cccc1-c1cccc(NC(=O)c2nc3c(n2C)CCN(CC24CCC(C(=O)O)(CC2)C4)C3)c1Cl` [Example 267], the 50% inhibitory concentration (IC50) at PD-1/PD-L1 stood at 2.3 nM; in data set [2], 7.8 nM; on PD-L1, 121 nM. The half-life in data set [1] (male, Sprague-Dawley, plasma, 1.0 mg/kg IV) is 3.28 h. Moreover, the Vd in data set [1] (male, Sprague-Dawley, plasma, 1.0 mg/kg IV, read-out: Vss) worked out at 2.22 L/kg. Besides, the Cmax in data set [1] (male, Sprague-Dawley, plasma, 3.0 mg/kg PO) is 108 nM. Also, the AUC(0-inf) in data set [1] (male, Sprague-Dawley, plasma, 3.0 mg/kg PO, read-out: AUC0-inf) came to 0.687 µM·h. Further, in data set [1] (3.0 mg/kg PO), the F is listed as 12%. In data set [3], a half-maximal effect (EC50) was put at 39 nM.
As for `Cc1c(Nc2nc(C(F)F)nc3cc(CN4CC[C@H](O)C4)cnc23)cccc1-c1cccc(NC(=O)c2nc3c(n2C)CCN(CCC24CCC(C(=O)O)(CC2)C4)C3)c1Cl` [Example 3, (S)-4-(2-(2-((2-chloro-3′-((2-(difluoromethyl)-7-((3-hydroxypyrrolidin-1-yl)methyl)pyrido[3,2-d]pyrimidin-4-yl)amino)-2′-methyl-[1,1′-biphenyl]-3-yl)carbamoyl)-1-methyl-1,4,6,7-tetrahydro-5H-imidazo[4,5-c]pyridin-5-yl)ethyl)bicyclo[2.2.1]heptane-1-carboxylic Acid], the IC50 on PD-1/PD-L1 was found to be 1.5 nM; in data set [2], 2.5 nM; against PD-L1, 18 nM. The same compound gave an EC50 in data set [3] of 4 nM.
For `Cc1c(Nc2nc(C(F)F)nc3cc(CN[C@@H]4CCC[C@@H]4O)cnc23)cccc1-c1cccc(NC(=O)c2nc3c(n2C)CCN(CCC24CCC(C(=O)O)(CC2)C4)C3)c1Cl` [Example 9, 4-(2-(2-((2-chloro-3′-((2-(difluoromethyl)-7-((((1R,2S)-2-hydroxycyclopentyl)amino)methyl)pyrido[3,2-d]pyrimidin-4-yl)amino)-2′-methyl-[1,1′-biphenyl]-3-yl)carbamoyl)-1-methyl-1,4,6,7-tetrahydro-5H-imidazo[4,5-c]pyridin-5-yl)ethyl)bicyclo[2.2.1]heptane-1-carboxylic Acid], in that order: 1.7 nM, 4 nM, 6.4 nM and 3 nM.
For `Cc1c(Nc2nc(C(F)F)nc3cc(CN4C[C@@H](O)C[C@H]4C)cnc23)cccc1-c1cccc(NC(=O)c2nc3c(n2C)CCN(CCC24CCC(C(=O)O)(CC2)C4)C3)c1Cl` [Example 12, 4-(2-(2-((2-chloro-3′-((2-(difluoromethyl)-7-(((2R,4S)-4-hydroxy-2-methylpyrrolidin-1-yl)methyl)pyrido[3,2-d]pyrimidin-4-yl)amino)-2′-methyl-[1,1′-biphenyl]-3-yl)carbamoyl)-1-methyl-1,4,6,7-tetrahydro-5H-imidazo[4,5-c]pyridin-5-yl)ethyl)bicyclo[2.2.1]heptane-1-carboxylic Acid], in that order: 1.5 nM, 3 nM, 30 nM and 41 nM.
For `C[C@H](O)CN1CCc2c(nc(C(=O)Nc3cccc(-c4cccc(NC(=O)c5nc6c(n5C)CCN(CC57CCC(C(=O)O)(CC5)C7)C6)c4Cl)c3Cl)n2C)C1` [Example 181, reference compound], in that order: 1.6 nM, 6.1 nM, 161 nM and 41 nM.
As to `CC(C)N1CCc2c(nc(C(=O)Nc3cccc(-c4cccc(NC(=O)c5nc6c(n5C)CCN(CC57CCC(C(=O)O)(CC5)C7)C6)c4Cl)c3Cl)n2C)C1` [Example 177, reference compound], the IC50 amounted to 1.5 nM on PD-1/PD-L1, 5.7 nM in data set [2] and 185 nM on PD-L1. The EC50 in data set [3] was determined as 31 nM.
For `Cc1c(Nc2nc(C(F)F)nc3cc(CN4CCC[C@H]4C)cnc23)cccc1-c1cccc(NC(=O)c2nc3c(n2C)CCN(CCC24CCC(C(=O)O)(CC2)C4)C3)c1Cl` [Example 8, (R)-4-(2-(2-((2-chloro-3′-((2-(difluoromethyl)-7-((2-methylpyrrolidin-1-yl)methyl)pyrido[3,2-d]pyrimidin-4-yl)amino)-2′-methyl-[1,1′-biphenyl]-3-yl)carbamoyl)-1-methyl-1,4,6,7-tetrahydro-5H-imidazo[4,5-c]pyridin-5-yl)ethyl)bicyclo[2.2.1]heptane-1-carboxylic Acid], in that order: 1.5 nM, 4 nM, 33 nM and 7 nM.
